Measurements published in PMC12497685, “Anticoronavirus Isoquinoline Alkaloids: Unraveling the Secrets of Their Structure–Activity Relationship” (Influenza and Other Respiratory Viruses, 2025).
“And” between values parts separate entries of the source, which are not always exact repeats. Identical values can stand only once. Like-named read-outs stand apart in the source and are kept apart here.

Assays:
[1] = tested on: HCoV‐229E; assay: microbe, parasite or virus in culture; assay type: cell-based; conditions: n = 1; for inhibition at 10 µM: Human coronavirus 229E, Huh-7, read-out: Protective effects HCoV-229E %
[2] = tested on: Huh7 cells; conditions: n = 1
[3] = at 10 μM, compared with vehicle control, Huh7 cells
[4] = at 10 μM, compared with vehicle control
[5] = tested at 1 μM due to low solubility in DMSO

Row | SMILES | Protective effects HCoV-229E % [1, 3] | Cytotoxicity to the host Huh7 cells % [2, 4] | inhibition at 10 µM [1, 3] [%] | Protective effects HCoV-229E % [1, 5] | Cytotoxicity to the host Huh7 cells % [2, 5]
1 | COc1cc2c(cc1OC)C1Cc3ccc(OC)c(O)c3C(C2)N1C (stereo not drawn) [Compound 24, (−)‐platycerine] | — (Not active (insignificant protective effects below 20%)) | — (Non-toxic (insignificant cytotoxic effects, below 20%)) | – | – | –
2 | COc1ccc2c(c1OC)CN1CCc3cc4c(cc3C1C2)OCO4 (stereo not drawn) [Compound 26, (+)‐canadine] | — (Not active (insignificant protective effects below 20%)) | — (Non-toxic (insignificant cytotoxic effects, below 20%)) | – | – | –
3 | COc1ccc2c(c1O)-c1c3c(cc4c1[C@H](C2)N(C)CC4)OCO3 [Compound 28, (+)‐bulbocapnine] | — (Not active (insignificant protective effects below 20%)) | — (Non-toxic (insignificant cytotoxic effects, below 20%)) | – | – | –
4 | COc1ccc2c(c1OC)CN(C)CCc1cc3c(cc1C(=O)C2)OCO3 [Compound 29, Allocryptopine] | – | — (Non-toxic (insignificant cytotoxic effects, below 20%)) | < 20 | – | –
5 | COc1ccc(CC2c3cc4c(cc3CCN2C)OCO4)c(C=O)c1OC (stereo not drawn) [Compound 30, (+)‐canadaline] | — (Not active (insignificant protective effects below 20%)) | — (Non-toxic (insignificant cytotoxic effects, below 20%)) | – | – | –
6 | COc1cc2c(cc1OC)[C@H]1[C@@H](C)c3ccc(OC)c(OC)c3CN1CC2 [Compound 31, (+)‐corydaline] | — (Not active (insignificant protective effects below 20%)) | — (Non-toxic (insignificant cytotoxic effects, below 20%)) | – | – | –
7 | COc1cc2c(cc1O)[C@@H]1Cc3ccc(OC)c(OC)c3CN1CC2 [Compound 32, tetrahydrocolumbamine] | — (Not active (insignificant protective effects below 20%)) | — (Non-toxic (insignificant cytotoxic effects, below 20%)) | – | – | –
8 | COc1cc2c(cc1O)[C@@H]1Cc3ccc(OC)c(O)c3CN1CC2 [Compound 33, (−)‐scoulerine] | — (Not active (insignificant protective effects below 20%)) | 40% and 35%–40% | – | – | –
9 | COc1cc2c(cc1O)[C@@H]1Cc3cc4c(cc3[C@H](C2)N1C)OCO4 [Compound 34, (−)‐caryachine] | — (Not active (insignificant protective effects below 20%)) | — (Non-toxic (insignificant cytotoxic effects, below 20%)) | – | – | –
10 | COc1ccc2c(c1OC)[C@@H]1Cc3cc4c(cc3[C@H](C2)N1C)OCO4 [Compound 36, O‐methylneocarychine] | — (Not active (insignificant protective effects below 20%)) | — (Non-toxic (insignificant cytotoxic effects, below 20%)) | – | – | –
11 | COc1cc2c(cc1OC)[C@@]1(Cc3ccc4c(c3[C@@H]1O)OCO4)N(C)CC2 [Compound 38, (−)‐fumaricine] | — (Not active (insignificant protective effects below 20%)) | — (Non-toxic (insignificant cytotoxic effects, below 20%)) | – | – | –
12 | COc1cc2c(cc1OC)C1(Cc3ccc4c(c3C1OC(C)=O)OCO4)N(C)CC2 (stereo not drawn) [Compound 39, (−)‐O‐methylfumarophycine] | — (Not active (insignificant protective effects below 20%)) | — (Non-toxic (insignificant cytotoxic effects, below 20%)) | – | – | –
13 | COc1cc2c(cc1O)C1(Cc3ccc4c(c3C1O)OCO4)N(C)CC2 (stereo not drawn) [Compound 40, (−)‐fumaritine] | – | – | – | — (Not active (insignificant protective effects below 20%)) | — (Non-toxic (insignificant cytotoxic effects, below 20%))
14 | CN1CCc2cc3c(cc2[C@]12Cc1ccc4c(c1C2=O)OCO4)OCO3 [Compound 41, (+)‐fumariline] | — (Not active (insignificant protective effects below 20%)) | — (Non-toxic (insignificant cytotoxic effects, below 20%)) | – | – | –
15 | COc1cc2c(cc1O)[C@]1(Cc3ccc4c(c3C1=O)OCO4)N(C)CC2 [Compound 42, (+)‐parfumine] | — (Not active (insignificant protective effects below 20%)) | — (Non-toxic (insignificant cytotoxic effects, below 20%)) | – | – | –
16 | COc1cc2c(cc1OC)C1Cc3ccc4c(c3CN1CC2)OCO4 (stereo not drawn) [Compound 43, (−)‐sinactine] | — (Not active (insignificant protective effects below 20%)) | — (Non-toxic (insignificant cytotoxic effects, below 20%)) | – | – | –
17 | COc1cc2c(cc1OC)C(=O)Cc1ccc3c(c1CN(C)CC2)OCO3 [Compound 45, cryptopine] | — (Not active (insignificant protective effects below 20%)) | — (Non-toxic (insignificant cytotoxic effects, below 20%)) | – | – | –
18 | CN1CCc2cc3c(cc2[C@H]1[C@@H]1OC(=O)c2c1ccc1c2OCO1)OCO3 [Compound 46, (+)‐bicuculline] | — (Not active (insignificant protective effects below 20%)) | — (Non-toxic (insignificant cytotoxic effects, below 20%)) | – | – | –
19 | COc1cc2c(cc1OC)-c1c(OC)c(OC)cc3c1[C@H](C2)N(C)CC3 [Compound 47, glaucine] | – | — (Non-toxic (insignificant cytotoxic effects, below 20%)) | < 20 | – | –
20 | O[C@@H]1Cc2cc3c(cc2[C@@H]2NCc4c(ccc5c4OCO5)[C@H]12)OCO3 [Compound 48, norchelidonine] | – | 50% | 50 | – | –
21 | c1cc2c(c3c1C[C@H]1c4cc5c(cc4CCN1C3)OCO5)OCO2 [Compound 49, (−)‐stylopine] | — (Not active (insignificant protective effects below 20%)) | — (Non-toxic (insignificant cytotoxic effects, below 20%)) | – | – | –
22 | CN1Cc2c(ccc3c2OCO3)[C@@H]2[C@H]1c1cc3c(cc1C[C@@H]2O)OCO3 [Compound 50, chelidonine] | – | 35% and 35%–40% | < 20 | – | –
23 | CCOC1c2c(ccc3c2OCO3)-c2ccc3cc4c(cc3c2N1C)OCO4 (centres unmarked) [Compound 51, 6‐ethoxydihydrosanguinarine] | — (Not active (insignificant protective effects below 20%)) | 90% and > 80% | – | – | –
24 | CCOC1c2c(ccc(OC)c2OC)-c2ccc3cc4c(cc3c2N1C)OCO4 (centres unmarked) [Compound 52, 6‐ethoxydihydrochelerytrine] | — (Not active (insignificant protective effects below 20%)) | 80% and > 80% | – | – | –
25 | COc1ccc(Cc2nccc3cc(OC)c(OC)cc23)cc1OC [Compound 53, papaverine] | – | 20% | < 20 | – | –
26 | COC1=CC=C2[C@H]3Cc4ccc(OC)c5c4[C@@]2(CCN3C)[C@H]1O5 [Compound 54, thebaine] | – | — (Non-toxic (insignificant cytotoxic effects, below 20%)) | < 20 | – | –
27 | COc1ccc2c(c1OC)C(=O)O[C@@H]2[C@H]1c2c(cc3c(c2OC)OCO3)CCN1C [Compound 55, (−)‐narcotine] | – | 20% | < 20 | – | –
28 | COc1ccc2c(c1O)-c1c(OC)c(OC)cc3c1[C@H](C2)NCC3 [Compound 57, norisocoridine] | — (Not active (insignificant protective effects below 20%)) | — (Non-toxic (insignificant cytotoxic effects, below 20%)) | – | – | –
